From PubChem BioAssay (NCI)
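Step 1: Grow cells in 96-well plates. Step 2: Expose to compound for 48 hours at 5 concentrations. Step 3: Interpolate endpoints linearly; if unreached, use highest concentration. Definition used: TGI = concentration required for complete inhibition of growth.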

Key:
Assay in all cases: growth of human tumour cells (NCI), 48 h
A498 renal = system: A498 renal
HCC-2998 colon = system: HCC-2998 colon
IGROV1 ovarian = system: IGROV1 ovarian
HT29 colon = system: HT29 colon
DU-145 prostate = system: DU-145 prostate
MDA-MB-231 breast = system: MDA-MB-231 breast
CAKI-1 renal = system: CAKI-1 renal
U251 CNS = system: U251 CNS
NCI/ADR-RES ovarian = system: NCI/ADR-RES ovarian
A549 NSCLC = system: A549 NSCLC
UO-31 renal = system: UO-31 renal
HS 578T breast = system: HS 578T breast
SF-539 CNS = system: SF-539 CNS
SF-295 CNS = system: SF-295 CNS
COLO 205 colon = system: COLO 205 colon
MALME-3M melanoma = system: MALME-3M melanoma
NCI-H522 lung = system: NCI-H522 lung
RXF 393 renal = system: RXF 393 renal
MCF7 breast = system: MCF7 breast
SK-MEL-28 melanoma = system: SK-MEL-28 melanoma
SF-268 CNS = system: SF-268 CNS
EKVX NSCLC = system: EKVX NSCLC
OVCAR-8 ovarian = system: OVCAR-8 ovarian
OVCAR-5 ovarian = system: OVCAR-5 ovarian
HOP-92 NSCLC = system: HOP-92 NSCLC
NCI-H226 lung = system: NCI-H226 lung
BT-549 breast = system: BT-549 breast
NCI-H23 lung = system: NCI-H23 lung
HCT-15 colon = system: HCT-15 colon
MDA-N = system: MDA-N
T-47D breast = system: T-47D breast
CCRF-CEM leukemia = system: CCRF-CEM leukemia
M14 melanoma = system: M14 melanoma
SK-MEL-5 melanoma = system: SK-MEL-5 melanoma
MOLT-4 leukemia = system: MOLT-4 leukemia
K-562 leukemia = system: K-562 leukemia
KM12 colon = system: KM12 colon
SNB-19 CNS = system: SNB-19 CNS
HCT-116 colon = system: HCT-116 colon
SR leukemia = system: SR leukemia
UACC-62 melanoma = system: UACC-62 melanoma
NCI-H460 lung = system: NCI-H460 lung
HOP-62 NSCLC = system: HOP-62 NSCLC
RPMI-8226 leukemia = system: RPMI-8226 leukemia
ACHN renal = system: ACHN renal
SN12C renal = system: SN12C renal
HL-60(TB) leukemia = system: HL-60(TB) leukemia
PC-3 prostate = system: PC-3 prostate
SK-MEL-2 melanoma = system: SK-MEL-2 melanoma
OVCAR-4 ovarian = system: OVCAR-4 ovarian
786-0 renal = system: 786-0 renal
SK-OV-3 ovarian = system: SK-OV-3 ovarian
TK-10 renal = system: TK-10 renal
OVCAR-3 ovarian = system: OVCAR-3 ovarian
UACC-257 melanoma = system: UACC-257 melanoma
MDA-MB-435 = system: MDA-MB-435
LOX IMVI melanoma = system: LOX IMVI melanoma
SW-620 colon = system: SW-620 colon
SNB-75 CNS = system: SNB-75 CNS

`Cc1cc(S(=O)(=O)Nc2nc3ccccc3nc2-c2cccc([N+](=O)[O-])c2)c(S)cc1Cl` gave a TGI (A498 renal) of 29.1 µM, a TGI (HCC-2998 colon) of 39.1 µM and a TGI (IGROV1 ovarian) of 30.4 µM. For the same compound, the TGI (HT29 colon) was 34.2 µM, the TGI (DU-145 prostate) was 36.8 µM and the TGI (MDA-MB-231 breast) was > 100 µM. It also gave a TGI (CAKI-1 renal) of 39.4 µM, a TGI (U251 CNS) of 38.6 µM and a TGI (NCI/ADR-RES ovarian) of 48.3 µM. For the same compound, the TGI (A549 NSCLC) was 38 µM, the TGI (UO-31 renal) was 46.1 µM and the TGI (HS 578T breast) was 73.4 µM. For the same compound, the TGI (SF-539 CNS) was 38.1 µM, the TGI (SF-295 CNS) was 59.8 µM and the TGI (COLO 205 colon) was 31.5 µM. For the same compound, the TGI (MALME-3M melanoma) was 37.3 µM, the TGI (NCI-H522 lung) was 38.9 µM and the TGI (RXF 393 renal) was 74.4 µM. The TGI (MCF7 breast) was 64.5 µM, the TGI (SK-MEL-28 melanoma) was 32.9 µM and the TGI (SF-268 CNS) was 56.2 µM. The TGI (EKVX NSCLC) was 54.4 µM, the TGI (OVCAR-8 ovarian) was 80.9 µM and the TGI (OVCAR-5 ovarian) was 88.4 µM. For the same compound, the TGI (HOP-92 NSCLC) was 46.5 µM, the TGI (NCI-H226 lung) was 44.5 µM and the TGI (BT-549 breast) was 72.8 µM. For the same compound, the TGI (NCI-H23 lung) was 33.7 µM, the TGI (HCT-15 colon) was > 100 µM and the TGI (MDA-N) was 46.2 µM. The TGI (T-47D breast) was 38.9 µM, the TGI (CCRF-CEM leukemia) was 75.7 µM and the TGI (M14 melanoma) was 35.1 µM. The TGI (SK-MEL-5 melanoma) was 28.4 µM, the TGI (MOLT-4 leukemia) was 73.5 µM and the TGI (K-562 leukemia) was > 100 µM. For the same compound, the TGI (KM12 colon) was 31.3 µM, the TGI (SNB-19 CNS) was 39.9 µM and the TGI (HCT-116 colon) was 35.2 µM. For the same compound, the TGI (SR leukemia) was 47.4 µM, the TGI (UACC-62 melanoma) was 31.8 µM and the TGI (NCI-H460 lung) was 35.3 µM. It also gave a TGI (HOP-62 NSCLC) of 39.2 µM, a TGI (RPMI-8226 leukemia) of 64.7 µM and a TGI (ACHN renal) of 64.3 µM. The TGI (SN12C renal) was 78.5 µM, the TGI (HL-60(TB) leukemia) was 44.4 µM and the TGI (PC-3 prostate) was 50.8 µM. The TGI (SK-MEL-2 melanoma) was 42.2 µM, the TGI (OVCAR-4 ovarian) was 66.8 µM and the TGI (786-0 renal) was 45.6 µM. The TGI (SK-OV-3 ovarian) was 34 µM, the TGI (TK-10 renal) was > 100 µM and the TGI (OVCAR-3 ovarian) was 30.6 µM. It also gave a TGI (UACC-257 melanoma) of 36 µM and a TGI (MDA-MB-435) of 41 µM.

In the case of `CNC(=O)C1(N)c2ccccc2C=Cc2ccccc21`, the TGI (A498 renal) is reported as > 100 µM, the TGI (IGROV1 ovarian) is reported as > 100 µM and the TGI (HT29 colon) is reported as > 100 µM. For the same compound, the TGI (DU-145 prostate) was > 100 µM, the TGI (MDA-MB-231 breast) was > 100 µM and the TGI (CAKI-1 renal) was > 100 µM. The TGI (U251 CNS) was > 100 µM, the TGI (NCI/ADR-RES ovarian) was > 100 µM and the TGI (A549 NSCLC) was > 100 µM. For the same compound, the TGI (UO-31 renal) was > 100 µM, the TGI (HS 578T breast) was > 100 µM and the TGI (SF-539 CNS) was > 100 µM. The TGI (SF-295 CNS) was > 100 µM, the TGI (COLO 205 colon) was > 100 µM and the TGI (MALME-3M melanoma) was > 100 µM. The TGI (NCI-H522 lung) was > 100 µM, the TGI (LOX IMVI melanoma) was > 100 µM and the TGI (MCF7 breast) was > 100 µM. The TGI (SK-MEL-28 melanoma) was > 100 µM, the TGI (SF-268 CNS) was > 100 µM and the TGI (EKVX NSCLC) was > 100 µM. The TGI (OVCAR-8 ovarian) was > 100 µM, the TGI (OVCAR-5 ovarian) was > 100 µM and the TGI (HOP-92 NSCLC) was > 100 µM. For the same compound, the TGI (NCI-H226 lung) was > 100 µM, the TGI (BT-549 breast) was > 100 µM and the TGI (NCI-H23 lung) was > 100 µM. The TGI (HCT-15 colon) was > 100 µM, the TGI (MDA-N) was > 100 µM and the TGI (T-47D breast) was > 100 µM. The TGI (CCRF-CEM leukemia) was > 100 µM, the TGI (M14 melanoma) was > 100 µM and the TGI (SK-MEL-5 melanoma) was > 100 µM. The TGI (MOLT-4 leukemia) was > 100 µM, the TGI (K-562 leukemia) was > 100 µM and the TGI (KM12 colon) was > 100 µM. For the same compound, the TGI (SNB-19 CNS) was > 100 µM, the TGI (HCT-116 colon) was > 100 µM and the TGI (SR leukemia) was > 100 µM. The TGI (UACC-62 melanoma) was > 100 µM, the TGI (HOP-62 NSCLC) was > 100 µM and the TGI (RPMI-8226 leukemia) was > 100 µM. The TGI (ACHN renal) was > 100 µM, the TGI (SN12C renal) was > 100 µM and the TGI (HL-60(TB) leukemia) was > 100 µM. For the same compound, the TGI (PC-3 prostate) was > 100 µM, the TGI (SK-MEL-2 melanoma) was > 100 µM and the TGI (OVCAR-4 ovarian) was > 100 µM. The TGI (786-0 renal) was > 100 µM, the TGI (SK-OV-3 ovarian) was > 100 µM and the TGI (TK-10 renal) was > 100 µM. The TGI (SW-620 colon) was > 100 µM, the TGI (OVCAR-3 ovarian) was > 100 µM and the TGI (MDA-MB-435) was > 100 µM.

In the case of `CCOC(=O)c1c(C)nc2c1c(CN(C)C)c(O)c1[nH]c(C)c(C)nc12`, the TGI (A498 renal) is reported as 40 µM, the TGI (HCC-2998 colon) is reported as 51 µM and the TGI (IGROV1 ovarian) is reported as > 100 µM. The TGI (HT29 colon) was 81.6 µM, the TGI (DU-145 prostate) was > 100 µM and the TGI (CAKI-1 renal) was > 100 µM. For the same compound, the TGI (U251 CNS) was 68.7 µM, the TGI (NCI/ADR-RES ovarian) was 76.6 µM and the TGI (A549 NSCLC) was > 100 µM. The TGI (UO-31 renal) was > 100 µM, the TGI (HS 578T breast) was 70.8 µM and the TGI (SF-539 CNS) was 49.5 µM. It also gave a TGI (SF-295 CNS) of 62.2 µM, a TGI (COLO 205 colon) of 40.4 µM and a TGI (MALME-3M melanoma) of 53.4 µM. For the same compound, the TGI (NCI-H522 lung) was 42.7 µM, the TGI (RXF 393 renal) was 65.7 µM and the TGI (LOX IMVI melanoma) was 37.8 µM. For the same compound, the TGI (MCF7 breast) was 52.1 µM, the TGI (SK-MEL-28 melanoma) was 76.9 µM and the TGI (SF-268 CNS) was 93.1 µM. It also gave a TGI (EKVX NSCLC) of 92 µM, a TGI (OVCAR-8 ovarian) of 60.4 µM and a TGI (OVCAR-5 ovarian) of 94 µM. The TGI (HOP-92 NSCLC) was 96.6 µM, the TGI (NCI-H226 lung) was 62.1 µM and the TGI (BT-549 breast) was 76 µM. The TGI (NCI-H23 lung) was 89.3 µM, the TGI (HCT-15 colon) was > 100 µM and the TGI (MDA-N) was 54.7 µM. The TGI (T-47D breast) was 74.1 µM, the TGI (CCRF-CEM leukemia) was 38.3 µM and the TGI (M14 melanoma) was > 100 µM. For the same compound, the TGI (SK-MEL-5 melanoma) was 29.1 µM, the TGI (MOLT-4 leukemia) was 85.6 µM and the TGI (K-562 leukemia) was > 100 µM. The TGI (KM12 colon) was > 100 µM, the TGI (SNB-19 CNS) was > 100 µM and the TGI (HCT-116 colon) was 42.8 µM. For the same compound, the TGI (SR leukemia) was 51.5 µM, the TGI (UACC-62 melanoma) was 30.3 µM and the TGI (NCI-H460 lung) was 61.1 µM. It also gave a TGI (HOP-62 NSCLC) of 51 µM, a TGI (RPMI-8226 leukemia) of 43.8 µM and a TGI (ACHN renal) of 69.9 µM. The TGI (SN12C renal) was 38.4 µM, the TGI (HL-60(TB) leukemia) was 25.2 µM and the TGI (PC-3 prostate) was 54.5 µM. For the same compound, the TGI (SK-MEL-2 melanoma) was 43.8 µM, the TGI (OVCAR-4 ovarian) was > 100 µM and the TGI (786-0 renal) was 49.5 µM. It also gave a TGI (SK-OV-3 ovarian) of 92.3 µM, a TGI (TK-10 renal) of 72.8 µM and a TGI (SW-620 colon) of 95.2 µM. For the same compound, the TGI (OVCAR-3 ovarian) was 85.7 µM, the TGI (UACC-257 melanoma) was 61.3 µM and the TGI (MDA-MB-435) was 99.7 µM. It also gave a TGI (SNB-75 CNS) of 60.7 µM.
